The text below walks through data of ChEMBL document CHEMBL1127782, “Non-peptidic inhibitors of human leukocyte elastase. 1. The design and synthesis of pyridone-containing inhibitors” (J Med Chem, 1994).

The assay concerns the target T1, Neutrophil elastase (Homo sapiens, UniProt P08246).
T1 sequence (P08246 whole entry): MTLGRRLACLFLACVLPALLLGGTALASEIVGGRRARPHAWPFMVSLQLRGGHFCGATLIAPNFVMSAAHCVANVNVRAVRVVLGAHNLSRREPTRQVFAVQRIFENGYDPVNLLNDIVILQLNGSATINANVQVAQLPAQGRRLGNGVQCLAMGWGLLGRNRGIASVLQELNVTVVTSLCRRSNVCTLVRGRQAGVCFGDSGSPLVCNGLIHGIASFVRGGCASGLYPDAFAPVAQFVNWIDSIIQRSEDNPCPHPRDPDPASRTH
The experiment in a line: The compound was tested in vitro for ability to inhibit human leukocyte elastase activity.
The term Ki denotes a measure of affinity in units of concentration, obtained from inhibition or displacement. Take `CC(C)C(NC(=O)Cn1cc(Cc2ccccc2)cc(NC(=O)C(N)=O)c1=O)C(=O)C(F)(F)F` (configuration not stated): the affinity, expressed as Ki, was 51 nM.

In turn, `CC(C)C(NC(=O)Cn1cccc(NC(=O)C(=O)O)c1=O)C(=O)C(F)(F)F` (configuration not stated) came in with a Ki of 350 nM.

For `CC(C)C(NC(=O)Cn1cccc([N+](=O)[O-])c1=O)C(=O)C(F)(F)F` (configuration not stated), the Ki was 15000 nM.

On to `CC(C)C(NC(=O)Cn1cc(Cc2ccc(C(F)(F)F)cc2)cc(NC(=O)OCc2ccccc2)c1=O)C(=O)C(F)(F)F` (configuration not stated), for which the affinity corresponds to a Ki of 47 nM.

Consider `CC(C)C(NC(=O)Cn1cc(Cc2ccc(O)cc2)cc(NC(=O)OCc2ccccc2)c1=O)C(=O)C(F)(F)F` (configuration not stated), for which the Ki turned out to be 34 nM.

As to `COC(=O)c1ccc(Cc2cc(NC(=O)OCc3ccccc3)c(=O)n(CC(=O)NC(C(=O)C(F)(F)F)C(C)C)c2)cc1` (configuration not stated), the affinity, expressed as Ki, was 88 nM. This Ki lies about 2.6-fold higher than the previous one.

For the compound `CC(C)C(NC(=O)Cn1cc(Cc2ccc(F)cc2)cc(NC(=O)OCc2ccccc2)c1=O)C(=O)C(F)(F)F` (configuration not stated), affinity was put at a Ki of 71 nM. The Ki values of the last two compounds are within 1.5-fold of each other.

Regarding `COC(=O)C(=O)Nc1cccn(CC(=O)NC(C(=O)C(F)(F)F)C(C)C)c1=O` (configuration not stated), the affinity, expressed as Ki, was 500 nM. This Ki is about 7-fold higher than that of the compound before.

`CC(C)C(NC(=O)Cn1cccc(NC(=O)C(N)=O)c1=O)C(=O)C(F)(F)F` (configuration not stated) had a Ki of 320 nM.

On to `CC(C)C(NC(=O)Cn1cc(Cc2cccc(OC(=O)C(C)(C)C)c2)cc(NC(=O)OCc2ccccc2)c1=O)C(=O)C(F)(F)F` (configuration not stated), for which affinity was put at a Ki of 12 nM. This Ki lies about 27-fold lower than the previous one.

In turn, `CC(C)C(NC(=O)Cn1cc(Cc2cccc(F)c2)cc(NC(=O)OCc2ccccc2)c1=O)C(=O)C(F)(F)F` (configuration not stated) had a Ki of 87 nM. Against the preceding compound, the Ki is about 7.2-fold higher.

`COC(=O)C(=O)Nc1cc(Cc2ccccc2)cn(CC(=O)NC(C(=O)C(F)(F)F)C(C)C)c1=O` (configuration not stated) registered an inhibition constant (Ki) of 70 nM.

With `CC(C)C(NC(=O)Cn1cc(Cc2cccc(O)c2)cc(NC(=O)OCc2ccccc2)c1=O)C(=O)C(F)(F)F` (configuration not stated), the affinity corresponds to a Ki of 89 nM. This Ki and that of the compound before are within 1.5-fold of each other.

The compound `CC(=O)Oc1cccc(Cc2cc(NC(=O)OCc3ccccc3)c(=O)n(CC(=O)NC(C(=O)C(F)(F)F)C(C)C)c2)c1` (configuration not stated) returned a Ki of 42 nM. Compared with the last compound, the Ki is about 2.1-fold lower.

In turn, `CC(C)C(NC(=O)Cn1cc(Cc2ccccc2)cc(NC(=O)OCc2ccccc2)c1=O)C(=O)C(F)(F)F` (configuration not stated) yielded a Ki of 40 nM. This Ki and that of the compound before are within 1.5-fold of each other.

`CCOC(=O)CC(=O)Nc1cccn(CC(=O)NC(C(=O)C(F)(F)F)C(C)C)c1=O` (configuration not stated) registered a Ki of 3400 nM.

In the case of `CC(C)C(NC(=O)Cn1cc(Cc2ccccc2)cc(NC(=O)C(=O)O)c1=O)C(=O)C(F)(F)F` (configuration not stated), the Ki is 48 nM. Compared with the last compound, the Ki is about 71-fold lower.

As to `CC(C)C(NC(=O)Cn1cccc(NC(=O)OCc2ccccc2)c1=O)C(=O)C(F)(F)F` (configuration not stated), the Ki was 280 nM.

Regarding `CC(C)C(NC(=O)Cn1cccc(N)c1=O)C(=O)C(F)(F)F` (configuration not stated), the Ki worked out at 2700 nM. This Ki is about 9.6-fold higher than that of the compound before.

As for `CC(C)C(NC(=O)Cn1cc(Cc2ccc(OC(=O)C(C)(C)C)cc2)cc(NC(=O)OCc2ccccc2)c1=O)C(=O)C(F)(F)F` (configuration not stated), the Ki amounted to 32 nM.

As for `CC(C)C(NC(=O)Cn1cccc(NC(=O)CC(=O)O)c1=O)C(=O)C(F)(F)F` (configuration not stated), the affinity, expressed as Ki, was 2600 nM.

With `CC(C)C(NC(=O)Cn1cc(Cc2cccc(NC(=O)C(F)(F)F)c2)cc(NC(=O)OCc2ccccc2)c1=O)C(=O)C(F)(F)F` (configuration not stated), the Ki was 36 nM.
